Measured values as given in US20130204033A1, “ANTIPROLIFERATIVE COMPOUNDS, CONJUGATES THEREOF, METHODS THEREFOR, AND USES THEREOF” (Medarex, Inc., priority 2009, published 2013).
Where two headings read alike, the source gives them in different places.

Experiments:
Type in all cases: cell-based, human
H740 = assay: 3H thymidine proliferation assay, H740
In short: (§1)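 EC50 from ^3H-thymidine uptake: 1.0 μCi/well pulse during final 24 h of a 72 h exposure; scintillation count. 1.0×10^4 cells/well, seeded 3 h before 1:3 serial dilutions of unconjugated compound or conjugate.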

UO-31 [1] = assay: ATP luminescence proliferation assay, UO-31
Protocol: (§2) This example generally describes the procedures used to assay the antiproliferative activity of compounds of this invention or their conjugates. Human tumor cell lines were obtained from the American Type Culture Collection (ATCC), P.O. Box 1549, Manassas, Va. 20108, USA, and cultured according to instruction from the ATCC. Cells were seeded at 1.0×10^3 or 1.0×10^4 cells/well in 96-well plates for 3 h for ATP assays or ^3H thymidine assays, respectively. 1:3 serial dilutions of free (unconjugated) compounds or their conjugates were added to the wells. Plates were allowed to incubate for 24 to 72 h. The ^3H thymidine plates were pulsed with 1.0 μCi of ^3H-thymidine per well for the last 24 hours of the total incubation period, harvested, and read on a Top Count Scintillation Counter (Packard Instruments, Meriden, Conn.). ATP levels in the ATP plates were measured using the […]-GLO® Luminescent Cell Viability kit following the manufacturer's manual and read on a GLOMAX® 20/20 luminometer (both from Promega, Madison, Wis., USA). The EC50 values—the concentration at which an agent inhibits or reduces cell proliferation by 50% —were determined using PRISM™ software, version 4.0 (GraphPad Software, La Jolla, Calif., USA).
(§3) Using the ^3H thymidine or the ATP luminescence assay, or both, the activities of compounds of this invention were assayed against the following cancer cell lines: HCT-15 (colorectal cancer, multi-drug resistant (MDR)); Hep3B (liver cancer); LNCaP (prostate cancer, androgen receptor positive (AR^+)); MDA-MB-231 (breast cancer, estrogen receptor, progesterone receptor, and Her2 negative (triple negative)); A2058 (melanoma); U-87 MG (glioblastoma); NCI-H460 (NSCLC); A549 (NSCLC); HPAC (pancreatic cancer, primary); PC3 (prostate cancer, AR); BT474 (breast cancer, Her2 highly positive (Her2hi)); SKOV3 (ovarian cancer, Her2hi); 786-O (renal cancer); UO-31 (renal cancer, MDR); NCI-H740 (SCLC); DMS53 (SCLC); SK-BR3 (breast cancer, Her2hi); ZR-75 (breast cancer, estrogen receptor positive); OVCAR3 (ovarian cancer); HL-60 (APL); OVCAR8/Adr (ovarian cancer, MDR); CEM-Cl (ALL); Nomo-1 (AML); RPMI-8226 (MM)); Raji (lymphoma); SW-480 (colorectal cancer, metastatic); SW-620 (colorectal cancer); and H226 (lung cancer). (Not all compounds were assayed against all cell lines.)
(§4) Table 3 provides the data for the ATP luminescence proliferation assays, with an incubation period of 48, 72, or 96 h, as noted.

RPMI-8226 = assay: 3H thymidine proliferation assay, RPMI-8226
In short: as §1

ZR-75 = assay: 3H thymidine proliferation assay, ZR-75
In short: as §1

PC3 = assay: ATP luminescence proliferation assay, PC3
Protocol: as §2, §3, §4

U-87 MG = assay: ATP luminescence proliferation assay, U-87 MG
Protocol: as §2, §3, §4

Raji [2] = assay: ATP luminescence proliferation assay, Raji
Protocol: as §2, §3, §4

DMS53 [3] = assay: ATP luminescence proliferation assay, DMS53
Protocol: as §2, §3, §4

CEM-C1 = assay: 3H thymidine proliferation assay, CEM-C1
In short: as §1

Hep3B = assay: ATP luminescence proliferation assay, Hep3B
Protocol: as §2, §3, §4

HCT-15 = assay: 3H thymidine proliferation assay, HCT-15
In short: as §1

Nomo-1 = assay: 3H thymidine proliferation assay, Nomo-1
In short: as §1

OVCAR3 [4] = assay: 3H thymidine proliferation assay, OVCAR3
In short: as §1

OVCAR3 [5] = assay: ATP luminescence proliferation assay, OVCAR3
In short: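 Cells were seeded at 1.0×10^3 cells/well for 3 h, then given 1:3 serial dilutions of free compound or conjugate and incubated 48, 72 or 96 h. Cellular ATP was read by luminescent viability kit, and EC50 was the concentration reducing proliferation by 50%.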

Raji [6] = assay: 3H thymidine proliferation assay, Raji
In short: as §1

A2058 [7] = assay: 3H thymidine proliferation assay, A2058; conditions: 3H thymidine method, 72 h incubation
In short: as §1

SK-BR3 = assay: ATP luminescence proliferation assay, SK-BR3
Protocol: as §2, §3, §4

DMS53 [8] = assay: 3H thymidine proliferation assay, DMS53
In short: as §1

UO-31 [9] = assay: 3H thymidine proliferation assay, UO-31
In short: as §1

A2058 [10] = assay: ATP luminescence proliferation assay, A2058
Protocol: as §2, §3, §4

[11] = Homo sapiens, read-out: EC50, H740, 3H thymidine method, 72 h incubation
[12] = Homo sapiens, UO-31, 48 h, read-out: EC50 UO-31 (48 h), ATP luminescence, UO-31, 48 h incubation
[13] = Homo sapiens, RPMI-8226, read-out: EC50, RPMI-8226, 3H thymidine method, 72 h incubation
[14] = Homo sapiens, ZR75, read-out: EC50, ZR-75, 3H thymidine method, 72 h incubation
[15] = Homo sapiens, PC-3, 48 h, read-out: EC50 PC3 (48 h), ATP luminescence, PC3, 48 h incubation
[16] = Homo sapiens, 72 h, read-out: EC50 U-87 MG (72 h), ATP luminescence, U-87 MG, 72 h incubation
[17] = Homo sapiens, 72 h, read-out: EC50 Raji (72 h), ATP luminescence, Raji, 72 h incubation
[18] = Homo sapiens, DMS-53, 48 h, read-out: EC50 DMS53 (48 h), ATP luminescence, DMS53, 48 h incubation
[19] = Homo sapiens, CEM/C1, read-out: EC50, CEM-C1, 3H thymidine method, 72 h incubation
[20] = Homo sapiens, 48 h, read-out: EC50 Hep3B (48 h), ATP luminescence, Hep3B, 48 h incubation
[21] = Homo sapiens, HCT-15, read-out: EC50, HCT-15, 3H thymidine method, 72 h incubation
[22] = Homo sapiens, NOMO-1, read-out: EC50, Nomo-1, 3H thymidine method, 72 h incubation
[23] = Homo sapiens, OVCAR-3, read-out: EC50, OVCAR3, 3H thymidine method, 72 h incubation
[24] = Homo sapiens, OVCAR-3, 48 h, read-out: EC50 OVCAR3 (48 h), ATP luminescence, OVCAR3, 48 h incubation
[25] = Homo sapiens, Raji, read-out: EC50, Raji, 3H thymidine method, 72 h incubation
[26] = Homo sapiens, SK-BR-3, 48 h, read-out: EC50 SK-BR3 (48 h), ATP luminescence, SK-BR3, 48 h incubation
[27] = Homo sapiens, DMS-53, read-out: EC50, DMS53, 3H thymidine method, 72 h incubation
[28] = Homo sapiens, UO-31, read-out: EC50, UO-31, 3H thymidine method, 72 h incubation

SMILES	EC50 (H740; [11])	EC50 (UO-31 [1]; [12])	EC50 (RPMI-8226; [13])	EC50 (ZR-75; [14])	EC50 (PC3; [15])	EC50 (U-87 MG; [16])	EC50 (Raji [2]; [17])	EC50 (DMS53 [3]; [18])	EC50 (CEM-C1; [19])	EC50 (Hep3B; [20])	EC50 (HCT-15; [21])	EC50 (Nomo-1; [22])	EC50 (OVCAR3 [4]; [23])	EC50 (OVCAR3 [5]; [24])	EC50 (Raji [6]; [25])	EC50 (A2058 [7]; Homo sapiens, A2058)	EC50 (SK-BR3; [26])	EC50 (DMS53 [8]; [27])	EC50 (UO-31 [9]; [28])	further results
CC[C@H](C)[C@H](NC(=O)[C@H]1CCCCN1C)C(=O)N(C)[C@H](C[C@@H](OC)c1nc(C(=O)N[C@@H](Cc2ccc(N)cc2)CC(C)C(=O)O)cs1)C(C)C (stereo partly drawn) [Compound 51]	–	–	–	–	–	–	–	–	–	–	–	–	–	–	–	–	–	–	–	EC50 (H740; 3H thymidine method, 72 h incubation, read-out: EC50, H740): 0.037 µM; EC50 (UO-31 [1]; ATP luminescence, UO-31, 48 h incubation, read-out: EC50 UO-31 (48 h)): > 0.1 µM; EC50 (RPMI-8226; 3H thymidine method, 72 h incubation, read-out: EC50, RPMI-8226): 0.0022 µM; EC50 (ZR-75; 3H thymidine method, 72 h incubation, read-out: EC50, ZR-75): 0.0013 µM; EC50 (PC3; ATP luminescence, PC3, 48 h incubation, read-out: EC50 PC3 (48 h)): 0.016 µM; EC50 (U-87 MG; ATP luminescence, 72 h incubation, read-out: EC50 U-87 MG (72 h)): 0.0076 µM; EC50 (Raji [2]; ATP luminescence, 72 h incubation, read-out: EC50 Raji (72 h)): 0.005 µM; EC50 (DMS53 [3]; ATP luminescence, DMS53, 72 h incubation, read-out: EC50 DMS53 (72 h)): 0.046 µM; EC50 (CEM-C1; 3H thymidine method, 72 h incubation, read-out: EC50, CEM-C1): 0.002 µM; EC50 (Hep3B; ATP luminescence, 48 h incubation, read-out: EC50 Hep3B (48 h)): 0.0038 µM; EC50 (HCT-15; 3H thymidine method, 72 h incubation, read-out: EC50, HCT-15): 0.101 µM; EC50 (Nomo-1; 3H thymidine method, 72 h incubation, read-out: EC50, Nomo-1): 0.0035 µM; EC50 (OVCAR3 [4]; 3H thymidine method, 72 h incubation, read-out: EC50, OVCAR3): 0.0025 µM; EC50 (OVCAR3 [5]; ATP luminescence, OVCAR3, 48 h incubation, read-out: EC50 OVCAR3 (48 h)): 0.0055 µM; EC50 (Raji [6]; 3H thymidine method, 72 h incubation, read-out: EC50, Raji): 0.0015 µM; EC50 (A2058 [7]): 0.0004 µM; EC50 (SK-BR3; ATP luminescence, SK-BR3, 48 h incubation, read-out: EC50 SK-BR3 (48 h)): 0.013 µM; EC50 (DMS53 [8]; 3H thymidine method, 72 h incubation, read-out: EC50, DMS53): 0.024 µM; EC50 (UO-31 [9]; 3H thymidine method, 72 h incubation, read-out: EC50, UO-31): 0.035 µM; EC50 (A2058 [10]; ATP luminescence, A2058, 72 h incubation, read-out: EC50 A2058 (72 h)): 0.0055 µM
CC[C@H](C)[C@H](NC(=O)[C@H]1CCCCN1C)C(=O)N(C)[C@H](C[C@@H](OC)c1nc(C(=O)N[C@H](CC(=O)OC)Cc2ccccc2)cs1)C(C)C [Compound 25]	0.347 µM	0.759 µM	0.396 µM	> 3 µM	0.155 µM	0.357 µM	0.209 µM	0.366 µM	0.225 µM	0.246 µM	0.28 µM	0.116 µM	0.379 µM	> 3 µM	0.231 µM	0.409 µM	> 3 µM	0.515 µM	0.435 µM	EC50 (A2058 [10]; Homo sapiens, A2058, 72 h, read-out: EC50 A2058 (72 h), ATP luminescence, A2058, 72 h incubation): 0.212 µM
CCCC(NC(=O)c1csc([C@@H](C[C@H](C(C)C)N(C)C(=O)[C@@H](NC(=O)[C@H]2CCCCN2C)[C@@H](C)CC)OC)n1)C(=O)OC (stereo partly drawn) [Compound 17]	0.032 µM	> 0.1 µM	0.047 µM	> 0.1 µM	> 0.1 µM	0.022 µM	0.027 µM	~0.08 µM	0.043 µM	> 0.1 µM	0.392 µM	0.0068 µM	> 0.1 µM	> 0.1 µM	0.053 µM	> 0.1 µM	0.024 µM	> 0.1 µM	> 0.1 µM	EC50 (A2058 [10]; Homo sapiens, A2058, 48 h, read-out: EC50 A2058 (48 h), ATP luminescence, A2058, 48 h incubation): 0.03 µM
